Data published in paper PMC7516017, “Organoids to Study Intestinal Nutrient Transport, Drug Uptake and Metabolism – Update to the Human Model and Expansion of Applications” (Frontiers in Bioengineering and Biotechnology, 2020).

Experiments:
[1] = tested on: murine small intestinal organoids; experiment: Amino acid and acylcarnitine levels after insulin (LC-MS/MS); assay type: cell-based, mouse; details: 1 μM insulin, measured after 0, 30, 60, 120 min
Description: For live-cell imaging of intracellular calcium concentrations, organoids were loaded with 7μM Fura-2
AM (Life Technologies) in HEPES-saline buffer as used for imaging of intracellular acidification for
20 min at 37 °C and then washed 5 times with PBS (pH 7.4; 37 °C). Concentrations of substances used were: 100µM ATP (Sigma), 50mM glucose, and 50mM fructose. Using a Leica DMI6000 B inverted
fluorescence microscope (Leica Microsystems) at 20× magnification, images were captured every 5-
10s. The fluorescence ratio F(λex340nm)/ F(λex380nm) was calculated and imaging data were
Quantification of amino acid and acylcarnitine concentrations using targeted LC-MS/MS
Metabolite analyses were performed with samples from three different experiments: 1.
incubated for the indicated times. […] Addition of butyrate: murine colonic organoids were grown for 6 days in IC. 100µM carnitine and 1mM butyrate were added and organoids were incubated for the indicated times. […]
palmitate. Medium from untreated organoids was measured to verify organoids as source of […]
acylcarnitine concentrations, quantitative LC -MS/MS was applied as described previously [6, 7]. […]

[2] = tested on: murine large intestinal organoids; experiment: Acylcarnitine profiles after butyrate (LC-MS/MS); assay type: cell-based, mouse; details: 1mM butyrate with 100µM carnitine, measured 0, 5, 10, 30, 60 min
Description: (§1) 1.9. Imaging of intracellular calcium concentrations
(§2) Concentrations of substances used were: 100µM ATP (Sigma), 50mM glucose, and 50mM fructose. Using a Leica DMI6000 B inverted […]
(§3) analyzed using the Leica Application Suite Advanced Fluorescence software. Imaging of intracellular calcium concentrations was performed in human duodenal organoids.
(§4) Of note, the B27 supplement contains a n/a […]
(§5) incubated for the indicated times. Controls were not pulsed with insulin. 2. Addition of butyrate: murine colonic organoids were grown for 6 days in IC. 100µM carnitine and 1mM butyrate were added and organoids were incubated for the indicated times. Time point zero was sampled immediately after addition of butyrate and carnitine. Control organoids were not exposed to butyrate. 3. Addition of d13- […]
(§6) organoids were incubated for the indicated times. Controls were exposed to carnitine and BSA without […]
(§7) 5min) to remove remaining matrigel.
(§8) Comfort; Eppendorf, Hamburg, Germany). The samples were dried in nitrogen gas and reconstituted […]
(§9) To determine amino acid and
(§10) Analytics, Zwingen, Switzerland) was used. Data analysis was performed using Analyst 1.7® and SCIEX OS 1.4 software (Sciex).

[3] = tested on: human duodenal organoids; experiment: Live-cell imaging of intracellular calcium (Fura-2-AM); assay type: cell-based; details: Fura-2-AM 7μM, ratio F(λex340nm)/F(λex380nm), 100µM ATP
Description: as §1, §2, §3, §4, §5, §6, §7, §8, §9, §10

Compound: insulin
- tau-methylhistidine and propionylcarnitine (C3) after insulin stimulation [1]: diminished with lowest levels observed 60 min after insulin stimulation

Compound: CCCC(=O)O [butyrate]
- acetylcarnitine, butyrylcarnitine and palmitoylcarnitine concentrations [2]: increasing to maximal concentrations 60 min after butyrate addition

Compound: Nc1ncnc2c1ncn2[C@@H]1O[C@H](COP(=O)(O)OP(=O)(O)OP(=O)(O)O)[C@@H](O)[C@H]1O [ATP]
- intracellular calcium response [3]: increases in intracellular calcium
